Assay in all cases: DTP human tumour cell line panel, 48 h
For assay [1], the system named is NCI-H226 lung.
Assay [2] relates to SW-620 colon.
In assay [3] the test system is OVCAR-8 ovarian.
Assay [4] has as its system CAKI-1 renal.
Assay [5] has as its system UACC-257 melanoma.
Assay [6] relates to NCI-H23 lung.
Assay [7] has as its system UACC-62 melanoma.
The subject of assay [8] is MDA-MB-435.
Assay [9] has as its system SK-MEL-28 melanoma.
In assay [10] the test system is HS 578T breast.
Assay [11] concerns HT29 colon.

SMILES strings stand for the structures.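 Five concentrations, 48 hours, 96-well plates. The concentration for full growth arrest is given as TGI.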

The values that follow come from PubChem BioAssay (NCI).

Usually TGI stands for the concentration at which net growth stops. A low value points to more potent growth arrest.

On to `CC1=C/C(=N/N2C(=O)/C(=C/c3ccc(Cl)cc3)N=C2c2ccccc2)CC(C)(C)C1`, for which the concentration for total growth inhibition (TGI) in assay [1], in assay [2], in assay [3], in assay [4], in assay [5] and in [6] was more than 100 µM throughout. Further, the TGI in assay [7], in [8], in assay [9], in assay [10] and in [11] was more than 100 µM throughout.
Take `CC(=O)Oc1ccn2nc(C)c(Br)c2c1Br`: the total growth inhibition concentration (TGI) in [1] is more than 60.2 µM; in assay [2], more than 73.6 µM; in assay [3], more than 83.7 µM; in [4], 21.7 µM; in assay [5], 32.2 µM; in assay [6], 34.8 µM. For the same molecule, the TGI in [7] is 37.5 µM; in assay [8], 35.2 µM; in assay [9], 45 µM; in assay [10] it was more than 100 µM; in [11], 44.6 µM.
As for `O=c1c2cc(Br)ccc2oc2nc3n(c(=O)c12)CCCS3`, the TGI in assay [1], in assay [2], in [3], in assay [4], in assay [5] and in assay [6] was more than 100 µM each time. Besides, the TGI in assay [7], in [8], in [9] and in assay [10] was more than 100 µM throughout.
`C=C1CC/C=C(/C(=O)O)CC[C@H]2[C@@H]1CC2(C)C`: the total growth inhibition concentration (TGI) in assay [1], in [2], in assay [4], in assay [5], in assay [6] and in assay [7] was more than 100 µM in each case. The TGI in assay [8], in [9], in [10] and in [11] was more than 100 µM each time.
In the case of `COc1ccc(-c2cc(-c3ccc(Nc4ccnc5cc(C(F)(F)F)ccc45)cc3)[nH]c(=O)c2C#N)c2ccccc12`, the TGI in assay [1], in assay [2], in assay [3], in assay [4], in [5] and in assay [6] was more than 100 µM in each case. For the same molecule, the concentration for total growth inhibition (TGI) in [7] is more than 100 µM; in [8], more than 56.1 µM; in assay [9] it was more than 100 µM; in [10], more than 100 µM; in [11] it was more than 74.2 µM.
Regarding `NC1CC2C3CCC2C1C3=O` (stereo not given), the TGI in assay [1], in assay [2], in [3], in assay [4], in assay [5] and in assay [6] was more than 100 µM in each case. Moreover, the total growth inhibition concentration (TGI) in assay [7], in assay [8], in assay [9], in assay [10] and in assay [11] was more than 100 µM throughout.
Take `COc1nn(Cc2ccccc2F)c2ccc([N+](=O)[O-])cc12`: the TGI in [1], in [2], in [3], in assay [4], in [5] and in assay [6] was more than 100 µM in each case. The TGI in [8] is more than 23.6 µM; in assay [9], more than 100 µM; in [10] it was more than 100 µM; in [11], more than 100 µM.
In the case of `COc1cc(/C=C2\N=C(c3ccccc3)N(C3Nc4cc5c(cc4S3)NC(N3C(=O)/C(=C/c4cc(OC)c(OC)c(OC)c4)N=C3c3ccccc3)S5)C2=O)cc(OC)c1OC` (stereo not given), the TGI in assay [1], in assay [2], in [3], in assay [4], in assay [5] and in [6] was more than 100 µM throughout. Further, the total growth inhibition concentration (TGI) in [8], in assay [9], in assay [10] and in assay [11] was more than 100 µM in each case.
As for `N#Cc1c(=O)c2cc([N+](=O)[O-])ccc2n2c1[nH]c1ccccc12`, the total growth inhibition concentration (TGI) is more than 51 µM in [1]; more than 100 µM in assay [2]; more than 79.5 µM in [3]; more than 92 µM in assay [4]; more than 72 µM in assay [5]; more than 38.4 µM in [6]. In addition, the TGI in assay [7] is more than 54.1 µM; in assay [8], more than 79.9 µM; in assay [9] it was more than 64.8 µM; in assay [10], more than 74.9 µM; in assay [11] it was more than 87.9 µM.
`C#CC(O)/C=C/CCCCCCC#CC/C=C\CC#CCCCCCC/C=C/C(O)C#C` (stereo not given): the concentration for total growth inhibition (TGI) was determined as 14 µM in [1]; 7.3 µM in assay [2]; 13.1 µM in [3]; 5.98 µM in [4]; 8.57 µM in assay [5]; 3.53 µM in assay [6]. The TGI in assay [7] was 7.38 µM; in assay [8], 5.4 µM; in assay [9], 4.58 µM; in assay [10], 15 µM; in [11] it was 6.86 µM.
As for `c1ccc2nc3[nH]c4ccccc4c3cc2c1`, the concentration for total growth inhibition (TGI) in assay [1] stood at 18.3 µM; in assay [3] it was 2.35 µM; in assay [4] it was 3.69 µM; in [5], 2.47 µM; in assay [6], 1.81 µM; in assay [7] it was 2.2 µM. Also, the concentration for total growth inhibition (TGI) in assay [8] turned out to be 1.97 µM; in assay [10], 5.84 µM; in [11] it was 1.75 µM.
`O=C1CC(Br)c2c(Cl)sc(Cl)c21` (stereo not given): the total growth inhibition concentration (TGI) in [2] stood at 5.43 µM; in [3], 10.4 µM; in [4], 9.79 µM; in assay [5], 15 µM; in assay [6], 39.1 µM; in [7], 25.1 µM. The TGI stood at 7.38 µM in assay [8], 30.3 µM in assay [9], 47 µM in assay [10] and 41.7 µM in [11].
In the case of `CCCCCCOc1ccc(NC2=C(Cl)C(=O)c3cccnc3C2=O)cc1`, the total growth inhibition concentration (TGI) in assay [1] is 3.58 µM; in [2] it was 3.88 µM; in assay [3], 4.56 µM; in assay [5], 5.21 µM; in assay [6], 3.7 µM; in [7], 3.28 µM. In addition, the TGI in assay [8] is 3.62 µM; in [9] it was 5.03 µM; in [10] it was more than 10 µM; in assay [11], 6.66 µM.
